{"source": "patent US4537719A", "about": "“4-Methylsulfonyl-azetidinone derivatives” (Ajinomoto Company Incorporated, priority 1981, dated 1985)", "data": [{"biological_target": "T1, β-lactamase (Enterobacter cloacae, UniProt P05364)", "T1 construct": "obtained by destruction of the microbial cells with ultrasonic waves; endogenous in cells", "T1 sequence (P05364 21-381)": "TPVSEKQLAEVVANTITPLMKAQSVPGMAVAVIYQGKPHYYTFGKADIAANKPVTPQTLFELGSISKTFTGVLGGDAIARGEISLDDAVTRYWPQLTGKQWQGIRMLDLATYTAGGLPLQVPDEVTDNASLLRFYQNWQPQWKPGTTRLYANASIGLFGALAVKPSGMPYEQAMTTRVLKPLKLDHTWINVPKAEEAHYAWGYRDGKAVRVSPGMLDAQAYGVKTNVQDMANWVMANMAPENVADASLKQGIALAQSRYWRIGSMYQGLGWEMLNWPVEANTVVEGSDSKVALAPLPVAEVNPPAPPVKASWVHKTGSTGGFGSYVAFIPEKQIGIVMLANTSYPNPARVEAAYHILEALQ", "assay": "β-lactamase inhibition (iodometric absorbance at 575 nm; β-lactamase solution obtained by ultrasonic destruction of microbial cells)", "assay_type": "biochemical", "settings": "Enterobacter cloacae used as the β-lactamase-producing microorganism; pH 7.0, 30° C., 20 minutes; sample concentration not given", "procedure": "A phosphate buffer solution (pH 7.0, 0.5M, 0.2 ml), a sample*, which is a β-lactamase inhibiting agent, dissolved in the same buffer solution as mentioned above, and water (10 ml) were put in a test tube. In this tube, ampicillin (2 mM, 0.2 ml) in the case of penicillinase, and cephaloridine (2 mM, 0.2 ml) in the case of cephalosporinase, were added. This mixture was stirred moderately for 5 minutes at 30° C. in a thermostat. Microbial cells producing β-lactamase were collected, washed and suspended in the same buffer solution as above and thereto a β-lactamase solution (0.1 ml) obtained by destruction of the microbial cells with ultrasonic waves was added and reacted for 20 minutes.\nThe reaction was stopped by adding sodium tungstate (0.15M, pH 4.0, 1 ml) and an iodo reagent (3 ml) having iodine (0.1 mM), potassium iodide (1.6 mM) and 0.4% starch solution, (pH 6.0) was added thereto and was allowed to stand for 20 minutes. The absorbance was determined at 575 nm.\nOn the other hand, the same experiment as above without the sample (Control) was carried out and the absorbances were determined in the same manner as above.\nFrom each determined value as obtained above, the difference between the absorbance of the blank and that of the sample, referred to as As, and the difference between the absorbance of the blank and that of the Control referred to as AB were obtained, and therefrom the inhibiting ratio was calculated by the following equation:\nInhibiting Ratio(%)=(AS/AB)×100\nSome of the results as obtained above, in which Enterobacter cloacae was used as the β-lactamase-producing microorganism was used are as follows: […]", "units": {"Inhibiting Ratio (%)": "%"}, "values": [{"compound": "COC(=O)C(C(=O)O)N1C(=O)CC1SC", "note": "(stereo not shown) [Sample 1, 1-(1-carboxy-1-methyoxycarbonylmethyl)-4-methylthio-2-azetidinone]", "Inhibiting Ratio (%)": 46.2}, {"compound": "COC(=O)C(C(=O)O)N1C(=O)CC1S(C)(=O)=O", "note": "(stereo not shown) [Sample 2, 1-(1-carboxy-1-methoxycarbonylmethyl)-4-methylsulfonyl-2-azetidinone]", "Inhibiting Ratio (%)": 51.4}, {"compound": "CC(C)=C(C(=O)O)N1C(=O)[C@@H](NC(=O)[C@H](N)c2ccccc2)[C@H]1S(C)(=O)=O", "note": "[Sample 3, (3R,4R)-1-(1-carboxy-2-methylprope-1-nyl)-4-methylsulfonyl-3-[D-(-)-α-aminophenylacetamide]-2-azetidinone]", "Inhibiting Ratio (%)": 27.6}, {"compound": "CC(C)=C(C(=O)O)N1C(=O)[C@@H](N)[C@H]1S(C)(=O)=O", "note": "[Sample 4, (3R, 4R)-1-(1-carboxy-2-methylprope-1-nyl)-4-methylsulfonyl-3-amino-2-azetidinone]", "Inhibiting Ratio (%)": 35.8}]}]}
